Measurements: patent US11654136B2, “Phosphoinositide 3-kinase inhibitor with a zinc binding moiety” (Curis, Inc., priority 2011, dated 2023)
“Also recorded” adds a separate entry of the source. Where two headings read alike, the source gives them in different places.

Key:
glioblastoma xenografts = conditions: oral dosage; Folkes et al. 2008; cited from earlier work
[1] = system: PI3K pathway signaling (AKT, 4EBP-1, p70S6) in H460 cells; assay: Western blot / in-cell-western of PI3K pathway signaling in H460 cells; type: cell-based
Experimental: (§1) Cell extracts were prepared in the presence of SDS and 2-mercaptoethanol and resolved in polyacrylamide gels. Proteins were transferred to nitrocellulose filter and blotting was done using standard procedures with blocking solutions (Li-Cor Bioscience) containing the indicated primary antibody. Primary antibodies against p-EGFR, EGFR, p-HER2, HER2, p-HER3, HER3, p-MET, MET, p-bRaf, p-cRaf, pMEK, MEK, p-ERK, ERK and tubulin were purchased from Cell Signaling Technology. Secondary antibody conjugated with IRdye 680, 800CW were used and the signal was detected with Li-Cor Odyssey Imager.
(§2) Immunocytochemistry was performed on cells grown in monolayer culture that were treated as indicated in the figure legends and then fixed in 4% (w/v) paraformaldehyde. After washing in 1×PBS, immunostaining was performed in Li-Cor blocking solution containing the indicated primary antibodies and IRDye 680- or 800CW-conjugated secondary antibodies. For in-cell-western, a Li-Cor Odyssey infrared imager was used for detection and quantification of results.
(§3) Cells were treated with DMSO alone (vehicle control) or containing test compounds for 1 h before Western blot or in-cell-western was performed.

[2] = system: HDAC activity (Ac-H3, Ac-Tub, Ac-p53, p53, p21) in H460 cells; assay: Western blot / in-cell-western of HDAC markers in H460 cells; type: cell-based
Experimental: as §1, §2, §3

[3] = system: Salmonella typhimurium TA98; assay: Mini-Salmonella/mammalian-microsome reverse mutation assay TA98
Experimental: (§4) The tester strains used in the mutagenicity assay were Salmonella typhimurium tester strains TA98 (for detecting frame-shift reverse mutation) and TA100 (for detecting point reverse mutation). The assay was conducted in both the presence and absence of S9 mixture along with concurrent vehicle (DMSO, 20 μl/well) and positive controls in duplicate using 6-well plates. […] A reproducible two-fold increase (>2× of vehicle control) of revertant colonies over the daily average control value is considered a positive response of gene mutation for each strain.
(§5) 2-nitrofluorene and sodium azide served as the positive controls in the absence of S9 for TA98 and TA100 respectively. 2-Aminoanthracene served as the positive controls in the presence of S9 for TA98 and TA100.

[4] = system: EGFR, HER2, HER3, and MET; assay: Western blot of receptor tyrosine kinases in H1975 and BT-474 cells; type: cell-based; conditions: H1975 NSCLC cells and BT-474 breast cancer cells; 16 h
Experimental: as §1

[5] = system: marrow lymphocyte progenitor cells; assay: Effect on hematopoietic cells in bone marrow; type: in vivo, mice; conditions: 100 mg/kg orally for five consecutive days
Source text: Bone marrow was also removed from the mice sacrificed in Example 12. Bone marrow content were collected from the mice long bones and analyzed with flow cytometer. Various markers for progenitor or mature lymphocytes were used.

[6] = system: Salmonella typhimurium TA100
Experimental: as §4, §5

[7] = presence and absence of S9, up to 1000 μg/well

## CS(=O)(=O)N1CCN(Cc2cc3nc(-c4cccc5[nH]ncc45)nc(N4CCOCC4)c3s2)CC1 [GDC-0941, reference compound]
Glioblastoma xenografts
  Tumor suppression: tumor suppression

## COc1ccc(-c2nc(N3CCOCC3)c3sc(CN(C)c4ncc(C(=O)NO)cn4)cc3n2)cn1 [Compound 1, N-hydroxy-2-(((2-(6-methoxypyridin-3-yl)-4-morpholinothieno[3,2-d]pyrimidin-6-yl)methyl)(methyl)amino)pyrimidine-5-carboxamide]
[1]
  Phosphorylation of Akt: persistently and potently inhibits phosphorylation of Akt in a dose-dependent manner
[1]; 1 μmon
  Activation of AKT, 4EBP-1 and p70S6: inhibits the activation of AKT and the downstream signaling proteins 4EBP-1 and p70S6
[2]
  Levels of acetylated-tubulin, histone 3, p53 and p21 versus dose: increases levels of acetylated-tubulin (FIG. 7B), acetylated histone 3 (FIG. 7C), acetylated p53 (FIG. 7D), and acetylated p21 (FIG. 7E) in a dose-dependent manner
  Total p53 and p21 content: upregulates total p53 and p21 content
[2]; 1 μmon, 1 h
  Levels of acetylated histone 3, tubulin and p53: increases the levels of acetylated histone 3 (Ac-H3), tubulin (Ac-Tub), and p53 (Ac-p53)
[3]; +S9, 62.5 μg/well
  Background Lawn TA98: 4/4
  Revertants per well TA98, Mean: 5
  Revertants per well TA98, well 1: 4
  Revertants per well TA98, well 2: 6
[3]; +S9, 125 μg/well
  Background Lawn TA98: 4/4
  Revertants per well TA98, Mean: 5
  Revertants per well TA98, well 1: 6
  Revertants per well TA98, well 2: 3
[3]; +S9, 250 μg/well
  Background Lawn TA98: 4/4
  Revertants per well TA98, Mean: 7
  Revertants per well TA98, well 1: 8
  Revertants per well TA98, well 2: 6
[3]; +S9, 500 μg/well
  Background Lawn TA98: 3,sp/3,sp
  Revertants per well TA98, Mean: 6
  Revertants per well TA98, well 1: 6
  Revertants per well TA98, well 2: 6
[3]; +S9, 1000 μg/well
  Background Lawn TA98: 3,mp/3,mp
  Revertants per well TA98, Mean: 7
  Revertants per well TA98, well 1: 6
  Revertants per well TA98, well 2: 7
[3]; [7]
  Mutagenic response TA98: no evidence of a significant increase in the mean number of revertant colonies; also recorded: did not induce a positive mutagenic response
[3]; −S9, 62.5 μg/well
  Background Lawn TA98: 4/4
  Revertants per well TA98, Mean: 4
  Revertants per well TA98, well 1: 4
  Revertants per well TA98, well 2: 4
[3]; −S9, 125 μg/well
  Background Lawn TA98: 4/4
  Revertants per well TA98, Mean: 5
  Revertants per well TA98, well 1: 4
  Revertants per well TA98, well 2: 6
[3]; −S9, 250 μg/well
  Background Lawn TA98: 4,sp/4,sp
  Revertants per well TA98, Mean: 6
  Revertants per well TA98, well 1: 6
  Revertants per well TA98, well 2: 5
[3]; −S9, 500 μg/well
  Background Lawn TA98: 3,sp/3,sp
  Revertants per well TA98, Mean: 4
  Revertants per well TA98, well 1: 5
  Revertants per well TA98, well 2: 3
[3]; −S9, 1000 μg/well
  Background Lawn TA98: 3,mp/3,mp
  Revertants per well TA98, Mean: 5
  Revertants per well TA98, well 1: 4
  Revertants per well TA98, well 2: 5
[4]
  Levels of phosphorylated and total EGFR, HER2, HER3, and MET: reduce the levels of phosphorylated and total receptor tyrosine kinases EGFR, HER2, HER3, and MET
[5]
  Marrow lymphocyte progenitor cells: induced a compensatory increase in marrow lymphocyte progenitor cells
[6]; +S9, 62.5 μg/well
  Background Lawn TA100: 4/4
  Revertants per well TA100, Mean: 32
  Revertants per well TA100, well 1: 34
  Revertants per well TA100, well 2: 30
[6]; +S9, 125 μg/well
  Background Lawn TA100: 4/4
  Revertants per well TA100, Mean: 29
  Revertants per well TA100, well 1: 28
  Revertants per well TA100, well 2: 30
[6]; +S9, 250 μg/well
  Background Lawn TA100: 4/4
  Revertants per well TA100, Mean: 29
  Revertants per well TA100, well 1: 30
  Revertants per well TA100, well 2: 28
[6]; +S9, 500 μg/well
  Background Lawn TA100: 3,sp/3,sp
  Revertants per well TA100, Mean: 35
  Revertants per well TA100, well 1: 32
  Revertants per well TA100, well 2: 37
[6]; +S9, 1000 μg/well
  Background Lawn TA100: 3,mp/3,mp
  Revertants per well TA100, Mean: 34
  Revertants per well TA100, well 1: 33
  Revertants per well TA100, well 2: 34
[6]; [7]
  Mutagenic response TA100: no evidence of a significant increase in the mean number of revertant colonies; also recorded: did not induce a positive mutagenic response
[6]; −S9, 62.5 μg/well
  Background Lawn TA100: 4/4
  Revertants per well TA100, Mean: 32
  Revertants per well TA100, well 1: 34
  Revertants per well TA100, well 2: 30
[6]; −S9, 125 μg/well
  Background Lawn TA100: 4/4
  Revertants per well TA100, Mean: 33
  Revertants per well TA100, well 1: 32
  Revertants per well TA100, well 2: 34
[6]; −S9, 250 μg/well
  Background Lawn TA100: 4,sp/4,sp
  Revertants per well TA100, Mean: 32
  Revertants per well TA100, well 1: 34
  Revertants per well TA100, well 2: 29
[6]; −S9, 500 μg/well
  Background Lawn TA100: 3,sp/3,sp
  Revertants per well TA100, Mean: 32
  Revertants per well TA100, well 1: 33
  Revertants per well TA100, well 2: 31
[6]; −S9, 1000 μg/well
  Background Lawn TA100: 3,mp/3,mp
  Revertants per well TA100, Mean: 27
  Revertants per well TA100, well 1: 28
  Revertants per well TA100, well 2: 26
